In patent publication EP1016409B1, “FREEZE DRIED COMPOSITION COMPRISING GLYCOSPHINGOLIPIDS” (KIRIN BEER KABUSHIKI KAISHA, priority 1997, dated 1998):

Key:
Assay type in all cases: physicochemical
[1] = Cooling condition after dissolution with heating 1: turbidity; conditions: Polysorbate 20 0.5%, histidine 0.75%, sucrose 5.6%, cooling 73°C → 30°C; for Turbidity After filtration / Turbidity Before filtration: 800 mg KRN7000 in 4 liters; for Turbidity After filtration: 0.22 µm filter; for Turbidity After filtration / Turbidity Lyophilized composition: kaolin 1 µg/ml = turbidity 1.00; for Turbidity Before filtration: kaolin 1 µg/ml = turbidity 1.00, 660 nm; for Turbidity Lyophilized composition: reconstituted after 3 hours at room temperature (25°C)
Description: First, Polysorbate 20 was dissolved in distilled water in a concentration of 0.5%, histidine in a concentration of 0.75%, and sucrose in a concentration of 5.6%. Next, 800 mg of the active component (KRN7000) was weighed and stirred in 4 liters of the solvent under heating at 73°C for 30 minutes in order to form a solution. After dissolution, the mixture was divided into about 500 ml portions, cooled with stirring from 73°C to 30°C (6 minutes), from 73°C to 30°C (23 minutes), and from 73°C to 30°C (120 minutes). After cooling, the mixtures were filtered through a 0.22 µm filter, and transparent colorless glass vials having a volume of 5 ml were charged with a 1 ml portion of each of a variety of solutions thus obtained and subjected to lyophilization. Lyophilization was carried out under the condition of preliminary freezing at -50°C for 5 hours and drying at -15°C for 48 hours, 10°C for 12 hours, and finally at 25°C for 7 hours to give the lyophilized product. The degree of vacuum was set at 0.1 Torr or less during drying step.
The turbidity of the solutions prepared respective cooling conditions before or after the filtration step, and the lyophilized composition thus obtained which were reconstituted after leaving standing at room temperature (25°C) for 3 hours from the lyophilization step, were measured. In this connection, the lyophilized composition was reconstituted in 1 ml of distilled water for injection, left standing for 30 minutes, and turbidity was measured when the foams generated on reconstitution disappeared.
The turbidity was measured by the following method: various dilutions including 50-fold dilution (kaolin 2 µg/ml, turbidity 2.00), 100-fold dilution (kaolin 1 µg/ml, turbidity 1.00), and 200-fold dilution (kaolin 0.5 µg/ml, turbidity 0.50) were prepared by diluting the turbidity standard (kaolin, […]) with distilled water. A calibration curve was made by measuring the absorbance at a wave length of 660 nm with a control of distilled water and the various dilutions in a spectrophotometer (HITACHI U-3210). Next, the absorbance of the solutions was measured under the same condition as above to calculate the turbidity of the solutions.

[2] = Addition effects of sodium deoxycholate and histidine in the absence of a sugar; conditions: lyophilized, KRN7000 200 µg/ml, Polysorbate 20 0.5%, 1%, no sugar, 50°C
Description: Addition effects of sodium deoxycholate and histidine in the absence of a sugar as the excipient was examined.
(§1) First, Polysorbate 20 was dissolved in distilled water in a concentration of 0.5%, and histidine or sodium deoxycholate in a concentration of 1.0%. Next, 20 mg of the active component (KRN7000) was weighed and stirred in 100 ml of the solvents in a heated bath to 80°C for 20 minutes in order to form a solution. After cooling with running water, the mixture was filtered through a 0.22 µm filter, and transparent colorless glass vials having a volume of 5 ml were charged with a 1 ml portion of each of a variety of solutions thus obtained and subjected to lyophilization. Lyophilization was carried out under the condition of preliminary freezing at -40°C for 2 hours and drying at -20°C for 24 hours, 10°C for 12 hours, and finally at 25°C for 5 hours to give the lyophilized product. The degree of vacuum was set at 0.1 Torr or less during drying step.
After the lyophilization step, the lyophilized composition thus obtained was stored at 50°C. After storage for 3 days or 2 weeks, the lyophilized composition was reconstituted in 1 ml of distilled water for injection, left standing for 30 minutes, and solubility was judged when the foams generated on reconstitution disappeared. […]

[3] = Additives for improving re-solubility during storage, mannitol as excipient; conditions: lyophilized, KRN7000 200 µg/ml, Polysorbate 20 0.5%, 25°C
Description: as §1, with “mannitol and a variety of additives such concentrations as listed” for “histidine or sodium deoxycholate”, “Table 8.” for “a concentration of 1.0%.”
After the lyophilization step, the lyophilized composition was stored at 25°C. After storage for 1 month, the lyophilized composition was reconstituted in 1 ml of distilled water for injection, left standing for 30 minutes, and solubility was judged when the foams generated on reconstitution disappeared. The samples judged in solution were further stored, and judged again of their solubility after 4 months.
The solubility was judged by cleaning the outside of the vial and placing it beneath the white light source in a darkroom for observation with naked eye at the position of a luminous intensity of about 5,000 lux. When the sample was clear with no precipitates, it was judged that the active component was dissolved.

Turbidity After filtration ([1]; 6 minutes): 0.13
Turbidity Before filtration ([1]; 6 minutes): 0.23
Turbidity After filtration ([1]; 23 minutes): 0.15
Turbidity Before filtration ([1]; 23 minutes): 0.58
Turbidity After filtration ([1]; 120 minutes): 0.16
Turbidity Before filtration ([1]; 120 minutes): 0.64
Turbidity Lyophilized composition ([1]; 6 minutes): 0.24
Turbidity Lyophilized composition ([1]; 23 minutes): 0.36
Turbidity Lyophilized composition ([1]; 120 minutes): 0.36
Re-solubility after storage (by naked eye) ([2]; Histidine, 2 weeks): + (+ not dissolved (or deposited))
Re-solubility after storage (by naked eye) ([2]; Sodium deoxycholate, 3 days): + (+ not dissolved (or deposited))
Re-solubility after storage (by naked eye) ([3]; Mannitol 10%, Sodium deoxycholate, 1%, 1 month): - (- dissolved)
Re-solubility after storage (by naked eye) ([3]; Mannitol 10%, Sodium deoxycholate, 1%, 4 months): - (- dissolved)
Re-solubility after storage (by naked eye) ([3]; Mannitol 10%, no additive, 1 month): - (- dissolved)
Re-solubility after storage (by naked eye) ([3]; Mannitol 10%, no additive, 4 months): + (+ not dissolved (or deposited))
Re-solubility after storage (by naked eye) ([3]; Mannitol 15%, Glycerol, 0.1%, 1 month): + (+ not dissolved (or deposited))
Re-solubility after storage (by naked eye) ([3]; Mannitol 15%, Glycerol, 0.1%, 4 months): + (+ not dissolved (or deposited))
Re-solubility after storage (by naked eye) ([3]; Mannitol 15%, Glycerol, 1%, 1 month): + (+ not dissolved (or deposited))
Re-solubility after storage (by naked eye) ([3]; Mannitol 15%, Glycerol, 1%, 4 months): + (+ not dissolved (or deposited))
Re-solubility after storage (by naked eye) ([3]; Mannitol 15%, PEG400, 1%, 1 month): + (+ not dissolved (or deposited))
Re-solubility after storage (by naked eye) ([3]; Mannitol 15%, PEG400, 1%, 4 months): + (+ not dissolved (or deposited))
Re-solubility after storage (by naked eye) ([3]; Mannitol 15%, Sodium deoxycholate, 1%, 1 month): + (+ not dissolved (or deposited))
Re-solubility after storage (by naked eye) ([3]; Mannitol 15%, Sodium deoxycholate, 1%, 4 months): + (+ not dissolved (or deposited))
Re-solubility after storage (by naked eye) ([3]; Mannitol 15%, no additive, 1 month): + (+ not dissolved (or deposited))
Re-solubility after storage (by naked eye) ([3]; Mannitol 15%, no additive, 4 months): + (+ not dissolved (or deposited))
Compound: CCCCCCCCCCCCCCCCCCCCCCCCCC(=O)N[C@@H](CO[C@H]1O[C@H](CO)[C@H](O)[C@H](O)[C@H]1O)[C@H](O)[C@H](O)CCCCCCCCCCCCCC [KRN7000, (2S,3S,4R)-1-(α-D-galactopyranosyloxy)-2-hexacosanoylamino-3,4-octadecanediol]
